Where two headings read alike, the source gives them in different places.
Experiments:
Chlamydia trachomatis = assay: Chlamydia assay: transient treatment of Chlamydia with maleimides, infection of McCoy cells, iodine-stained inclusions counted; assay type: cell-based; settings: for activity relative to bis maleimide equivalent: chlamydia infection of McCoy cells; for IODINE-STAINED INCLUSIONS/FIELD F1: field 1; for IODINE-STAINED INCLUSIONS/FIELD F2: field 2; for IODINE-STAINED INCLUSIONS/FIELD F3: field 3; for IODINE-STAINED INCLUSIONS/FIELD F4: field 4; for IODINE-STAINED INCLUSIONS/FIELD F5: field 5; for MEAN COUNT/FIELD (iodine-stained inclusions): mean of 5 fields; for TOTAL COUNT/FIELDS (iodine-stained inclusions): sum of 5 fields; for COMMENTS: inclusions seen on entire coverslip: re-examined under low power; for inhibition of the infection of McCoy cells with chlamydia: transient exposure of chlamydia to compound
Procedure: Purified Chlamydia trachomatis (250 μl) was added to 250 μl of each compound concentration and the mixtures incubated at room temperature for 5 minutes. The tubes were then centrifuged (15000 rpm, 15 minutes), the supernatant decanted and the pellet washed serum free MEM (with 0.5 mls). This step was repeated and the resultant pellet resuspended MEM (in 0.5 ml) and inoculated into a confluent shell vial (coverslip) cultures of McCoy cells. The cultures were centrifuged (3000 rpm, 1 hour at 37° C.) and incubated for a further 2 hours prior to being changed onto MEM with 10% foetal calf serum, I μg/rl cycloheximide, 0.5% added glucose, vancomycin, streptomycin and amphoteracin B (Fungizone). The cultures were incubated for 68 hours, fixed in methanol and stained with Lugol's iodine. 3 replicates of each positive control (with and without DMSO) were included, as well as 2 uninoculated cell controls. Each coverslip culture was examined using low power (10×) objective to ensure that inclusions were evenly distributed and 5 high power (×40) fields were selected at random from different areas of the coverslip. Iodine stained inclusions were counted. Where no inclusions were seen on high power, the culture was re-examined under low power. Table 1. Effect of Transient Treatment with maleimides on Chlamydia Infection of McCoy Cell In Vitro. Chlamydia was pre-treated with each of the indicated maleimides for 5 minutes and the compound removed by centrifugation. McCoy cells were then exposed to the compound pre-treated chlamydia for 68 hours and inclusions counted following staining of cells with Lugols iodine.

HIV (IHV-1RF) = assay: Anti-viral (virucidal) assay: plate-bound HIV treated 10 minutes, C8166 cells added, syncytium score and XTT; assay type: cell-based; settings: for Syncytia score day 5 (quadruplicate wells) / Syncytia score day 6 (quadruplicate wells): C8166 cells; for Mean Optical Readings at 450 nm: XTT cell viability
Procedure: HIV was attached to the surface of 96-well cell culture plates using 100 μl of 50 μg/ml poly-L-lysine hydrobromide (PLL) of molecular weight >300 K for 1 h at RT. The outer wells were left uncoated and filled with 250 μl of PBS to counteract the effects of evaporation. The coated wells were washed twice with PBS and 25 μl of RPMI 1640 medium containing 5×10^3 TCID50 of IHV-1RF was added and incubated for 1 h at RT. The wells were then washed twice with PBS and 25 μl of varying concentrations of the test compounds made up with serum free medium (containing a constant 10% DMSO) were added to the wells in quadruplicate and the plates incubated at 37° C. for 10 minutes. The wells were again washed twice with PBS and 5×10^4 C8166 cells in a volume of 300 μl distributed to each well and the plates incubated for 5 and 6 days respectively. On days 5 and 6 the cells were assessed microscopically for the presence of cytopathic effect (syncytium formation) and recorded. In order to quantify the cytopathic effect, XIT which is metabolised by viable but not dead cells, was added and the absorbance read at 450 nm after […] incubation at 37° C.
An assessment of viral cytopathic effect was made microscopically on days 5 and 6, but the end point of the experiment was on day 6 when the level of virus infection (as determined by cell viability) was quantified by the use of XTT.

[1] = final conc 0.02 (M), working conc 0.04 (M)
[2] = final conc 0.4 (M), working conc 0.8 (M)
[3] = final conc 1 (M), working conc 2 (M), 5 minutes pre-treatment, McCoy cells 68 hours
[4] = final conc 1 (M), working conc 2 (M)

COCCOCCOCCOCCOc1ccc(N2C(=O)C=CC2=O)cc1 [Compound 3, PEG(5) phenyl maleimide]
activity relative to bis maleimide equivalent (Chlamydia trachomatis): less active than its PEG bis (phenyl maleimide) equivalent
IODINE-STAINED INCLUSIONS/FIELD F1 (Chlamydia trachomatis; [1]): 12 inclusions/field
IODINE-STAINED INCLUSIONS/FIELD F2 (Chlamydia trachomatis; [1]): 24 inclusions/field
IODINE-STAINED INCLUSIONS/FIELD F3 (Chlamydia trachomatis; [1]): 9 inclusions/field
IODINE-STAINED INCLUSIONS/FIELD F4 (Chlamydia trachomatis; [1]): 29 inclusions/field
IODINE-STAINED INCLUSIONS/FIELD F5 (Chlamydia trachomatis; [1]): 22 inclusions/field
MEAN COUNT/FIELD (iodine-stained inclusions) (Chlamydia trachomatis; [1]): 19 inclusions/field
TOTAL COUNT/FIELDS (iodine-stained inclusions) (Chlamydia trachomatis; [1]): 96
IODINE-STAINED INCLUSIONS/FIELD F1 (Chlamydia trachomatis; [2]): 4 inclusions/field
IODINE-STAINED INCLUSIONS/FIELD F2 (Chlamydia trachomatis; [2]): 7 inclusions/field
IODINE-STAINED INCLUSIONS/FIELD F3 (Chlamydia trachomatis; [2]): 5 inclusions/field
IODINE-STAINED INCLUSIONS/FIELD F4 (Chlamydia trachomatis; [2]): 8 inclusions/field
IODINE-STAINED INCLUSIONS/FIELD F5 (Chlamydia trachomatis; [2]): 4 inclusions/field
MEAN COUNT/FIELD (iodine-stained inclusions) (Chlamydia trachomatis; [2]): 6 inclusions/field
TOTAL COUNT/FIELDS (iodine-stained inclusions) (Chlamydia trachomatis; [2]): 28
IODINE-STAINED INCLUSIONS/FIELD F1 (Chlamydia trachomatis; [3]): 0 inclusions/field
IODINE-STAINED INCLUSIONS/FIELD F2 (Chlamydia trachomatis; [4]): 0 inclusions/field
IODINE-STAINED INCLUSIONS/FIELD F3 (Chlamydia trachomatis; [4]): 0 inclusions/field
IODINE-STAINED INCLUSIONS/FIELD F4 (Chlamydia trachomatis; [4]): 0 inclusions/field
IODINE-STAINED INCLUSIONS/FIELD F5 (Chlamydia trachomatis; [4]): 0 inclusions/field
MEAN COUNT/FIELD (iodine-stained inclusions) (Chlamydia trachomatis; [4]): 0 inclusions/field
COMMENTS: inclusions seen on entire coverslip (Chlamydia trachomatis; [4]): 15
TOTAL COUNT/FIELDS (iodine-stained inclusions) (Chlamydia trachomatis; [4]): 0
inhibition of the infection of McCoy cells with chlamydia (Chlamydia trachomatis): dose-dependent inhibition
Syncytia score day 5 (quadruplicate wells) (HIV (IHV-1RF); Conc 0.003 mM): ++++ (50-100% syncytia)
Syncytia score day 6 (quadruplicate wells) (HIV (IHV-1RF); Conc 0.003 mM, day 6): ++++ (50-100% syncytia)
Mean Optical Readings at 450 nm (HIV (IHV-1RF); Conc 0.003 mM, day 6): 0.5018
Syncytia score day 5 (quadruplicate wells) (HIV (IHV-1RF); Conc 0.01 mM): +++ (25-50% syncytia)
Syncytia score day 6 (quadruplicate wells) (HIV (IHV-1RF); Conc 0.01 mM, day 6): ++++ (50-100% syncytia)
Mean Optical Readings at 450 nm (HIV (IHV-1RF); Conc 0.01 mM, day 6): 0.5085
Syncytia score day 5 (quadruplicate wells) (HIV (IHV-1RF); Conc 0.03 mM): +++ (25-50% syncytia)
Syncytia score day 6 (quadruplicate wells) (HIV (IHV-1RF); Conc 0.03 mM, day 6): ++++ (50-100% syncytia)
Mean Optical Readings at 450 nm (HIV (IHV-1RF); Conc 0.03 mM, day 6): 0.5012
Syncytia score day 5 (quadruplicate wells) (HIV (IHV-1RF); Conc 0.1 mM): +++ (25-50% syncytia)
Syncytia score day 6 (quadruplicate wells) (HIV (IHV-1RF); Conc 0.1 mM, day 6): ++++ (50-100% syncytia)
Mean Optical Readings at 450 nm (HIV (IHV-1RF); Conc 0.1 mM, day 6): 0.5118
Syncytia score day 5 (quadruplicate wells) (HIV (IHV-1RF); Conc 0.3 mM): +++ (25-50% syncytia)
Syncytia score day 6 (quadruplicate wells) (HIV (IHV-1RF); Conc 0.3 mM, day 6): ++++ (50-100% syncytia)
Mean Optical Readings at 450 nm (HIV (IHV-1RF); Conc 0.3 mM, day 6): 0.5092
Syncytia score day 5 (quadruplicate wells) (HIV (IHV-1RF); Conc 1 mM): +++ (25-50% syncytia)
Syncytia score day 6 (quadruplicate wells) (HIV (IHV-1RF); Conc 1 mM, day 6): +++ (25-50% syncytia)
Mean Optical Readings at 450 nm (HIV (IHV-1RF); Conc 1 mM, day 6): 0.5268
IC50 (HIV (IHV-1RF); Human immunodeficiency virus 1, C8166, XTT, day 6, virus treated 10 minutes, read-out: IC50 (virucidal)): > 1000 µM
virucidal activity (HIV (IHV-1RF); at concentrations up to 1.0 mM): no virucidal activity

CCN1C(=O)C=CC1=O [Compound 4, Ethyl maleimide]
activity relative to bis maleimide equivalent (Chlamydia trachomatis): less active than its bis maleimide equivalent
IODINE-STAINED INCLUSIONS/FIELD F1 (Chlamydia trachomatis; [1]): 1 inclusions/field
IODINE-STAINED INCLUSIONS/FIELD F2 (Chlamydia trachomatis; [1]): 11 inclusions/field
IODINE-STAINED INCLUSIONS/FIELD F3 (Chlamydia trachomatis; [1]): 6 inclusions/field
IODINE-STAINED INCLUSIONS/FIELD F4 (Chlamydia trachomatis; [1]): 4 inclusions/field
IODINE-STAINED INCLUSIONS/FIELD F5 (Chlamydia trachomatis; [1]): 2 inclusions/field
MEAN COUNT/FIELD (iodine-stained inclusions) (Chlamydia trachomatis; [1]): 5 inclusions/field
TOTAL COUNT/FIELDS (iodine-stained inclusions) (Chlamydia trachomatis; [1]): 24
IODINE-STAINED INCLUSIONS/FIELD F1 (Chlamydia trachomatis; [2]): 0 inclusions/field
IODINE-STAINED INCLUSIONS/FIELD F2 (Chlamydia trachomatis; [2]): 0 inclusions/field
IODINE-STAINED INCLUSIONS/FIELD F3 (Chlamydia trachomatis; [2]): 0 inclusions/field
IODINE-STAINED INCLUSIONS/FIELD F4 (Chlamydia trachomatis; [2]): 0 inclusions/field
IODINE-STAINED INCLUSIONS/FIELD F5 (Chlamydia trachomatis; [2]): 0 inclusions/field
MEAN COUNT/FIELD (iodine-stained inclusions) (Chlamydia trachomatis; [2]): 0 inclusions/field
COMMENTS: inclusions seen on entire coverslip (Chlamydia trachomatis; [2]): No
TOTAL COUNT/FIELDS (iodine-stained inclusions) (Chlamydia trachomatis; [2]): 0
IODINE-STAINED INCLUSIONS/FIELD F1 (Chlamydia trachomatis; [3]): 0 inclusions/field
IODINE-STAINED INCLUSIONS/FIELD F2 (Chlamydia trachomatis; [4]): 0 inclusions/field
IODINE-STAINED INCLUSIONS/FIELD F3 (Chlamydia trachomatis; [4]): 0 inclusions/field
IODINE-STAINED INCLUSIONS/FIELD F4 (Chlamydia trachomatis; [4]): 0 inclusions/field
IODINE-STAINED INCLUSIONS/FIELD F5 (Chlamydia trachomatis; [4]): 0 inclusions/field
MEAN COUNT/FIELD (iodine-stained inclusions) (Chlamydia trachomatis; [4]): 0 inclusions/field
COMMENTS: inclusions seen on entire coverslip (Chlamydia trachomatis; [4]): No
TOTAL COUNT/FIELDS (iodine-stained inclusions) (Chlamydia trachomatis; [4]): 0
inhibition of the infection of McCoy cells with chlamydia (Chlamydia trachomatis): dose-dependent inhibition
Syncytia score day 5 (quadruplicate wells) (HIV (IHV-1RF); Conc 0.01 mM): ++++ (50-100% syncytia)
Syncytia score day 6 (quadruplicate wells) (HIV (IHV-1RF); Conc 0.01 mM, day 6): ++++ (50-100% syncytia)
Mean Optical Readings at 450 nm (HIV (IHV-1RF); Conc 0.01 mM, day 6): 0.48
Syncytia score day 5 (quadruplicate wells) (HIV (IHV-1RF); Conc 0.03 mM): ++++ (50-100% syncytia)
Syncytia score day 6 (quadruplicate wells) (HIV (IHV-1RF); Conc 0.03 mM, day 6): ++++ (50-100% syncytia)
Mean Optical Readings at 450 nm (HIV (IHV-1RF); Conc 0.03 mM, day 6): 0.4915
Syncytia score day 5 (quadruplicate wells) (HIV (IHV-1RF); Conc 0.1 mM): ++++ (50-100% syncytia)
Syncytia score day 6 (quadruplicate wells) (HIV (IHV-1RF); Conc 0.1 mM, day 6): ++++ (50-100% syncytia)
Mean Optical Readings at 450 nm (HIV (IHV-1RF); Conc 0.1 mM, day 6): 0.5048
Syncytia score day 5 (quadruplicate wells) (HIV (IHV-1RF); Conc 0.3 mM): ++++ (50-100% syncytia)
Syncytia score day 6 (quadruplicate wells) (HIV (IHV-1RF); Conc 0.3 mM, day 6): ++++ (50-100% syncytia)
Mean Optical Readings at 450 nm (HIV (IHV-1RF); Conc 0.3 mM, day 6): 0.502
Syncytia score day 5 (quadruplicate wells) (HIV (IHV-1RF); Conc 1 mM): +++ (25-50% syncytia)
Mean Optical Readings at 450 nm (HIV (IHV-1RF); Conc 1 mM, day 6): 0.5275
Syncytia score day 5 (quadruplicate wells) (HIV (IHV-1RF); Conc 3 mM): 0
Syncytia score day 6 (quadruplicate wells) (HIV (IHV-1RF); Conc 3 mM, day 6): 0
Mean Optical Readings at 450 nm (HIV (IHV-1RF); Conc 3 mM, day 6, No Virus 1.84955, Virus Control 0.5091): 1.6305
IC50 (HIV (IHV-1RF); Human immunodeficiency virus 1, C8166, read-out: IC50 (virucidal)): 1900 µM
